# Laboratory results as given in paper PMC6595003, “Insights into real-time chemical processes in a calcium sensor protein-directed dynamic library” (Nature Communications, 2019).
# Assays:
# dNCS-1 [1] = target: T1, dNCS-1 (Drosophila melanogaster, UniProt Q9VWX8); assay: Tryptophan emission fluorescence of dNCS-1 at increasing ligand concentrations (apparent Kd); assay type: binding; conditions: for Kd: Ca2+ loaded dNCS-1 0.8 µM, pH 7.9, 5% DMSO, 5 °C, fit to 1:1 stoichiometry, three independent experiments
# T1 construct: made in house; host or cells: E. coli
# T1 sequence (Q9VWX8 1-187): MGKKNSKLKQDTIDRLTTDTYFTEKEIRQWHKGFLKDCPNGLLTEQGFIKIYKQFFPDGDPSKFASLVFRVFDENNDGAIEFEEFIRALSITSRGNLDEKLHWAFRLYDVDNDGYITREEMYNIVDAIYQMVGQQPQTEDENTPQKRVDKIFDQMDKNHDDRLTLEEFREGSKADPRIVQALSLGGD
# Experimental: (§1) Fluorescence-based experiments with 3a–3e were carried out to estimate their affinity to dNCS-1.
# Mean ± SD from three independent experiments. The curves represent the least squares fitting of the experimental data to a 1:1 stoichiometry. To properly compare the different curves, intensities were normalized and represented. […] Input represents 1/10 cell lysates before IP. Quantifications of each lane from four experiments are shown below the blots. Bars represent percentage of NCS-1/ Ric8a binding (mean ± SD) normalized to DMSO. […] Mean ± SD from three independent experiments. […] Then, the percentage of picnotic bodies over the total nuclei was analyzed. Mean ± SD from three independent experiments. Paired two-tailed Student’s test ***P˂0.001; **P < 0.01; *P < 0.05. Source data are provided as a Source Data file. IP immunoprecipitation, WB western blot […]
# the length of the pass light (L) is 1cm (see Supplementary Table 3 and Supplementary […]
# Fluorescence emission experiments. Tryptophan emission fluorescence of dNCS-1 […]
# affinity and calculate the apparent dissociation constant, Kd. Fluorescence measurements were performed by Jobin Yvon Floromax4 spectrofluorimeter equipped […]
# 5% DMSO at 5 °C. The excitation wavelength was fixed at 295 nm, and the emission spectra range were collected over 300-400 nm.
# Then, three independent experiments were performed
# Fluorescence intensities were normalized and represented as (I0 − I)/I 0. I stands for the observed fluorescence emission at 345 nm (fluorescence maximum), and I0 is the observed fluorescence emission of the protein itself without any small molecule. The apparent dissociation constant was obtained using a least squares algorithm to fit the experimental data to a 1:1 stoichiometry model.6 The fitting was performed with KaleidaGraph Data Analysis Program. […]
# Protein expression and purification. Drosophila and human NCS-1 were over-expressed in E. coli and subsequently purified to homogeneity as previously described.9
# [2] = Parallel artificial membrane permeability assay (PAMPA-BBB); assay type: in vitro ADME; conditions: for Pe (10-6 cm s-1) Experimental 1 / Pe (10-6 cm s-1) Experimental 2 / Pe (10-6 cm s-1) Experimental 3: source data
# Text: The PAMPA methodology is a high-throughput technique to predict passive permeability through biological membranes that employs a brain lipid porcine as membrane. […]
# From this equation and following the pattern established in the literature for BBB permeation prediction2 we could classify compounds as CNS + when they present a permeability > 4.50 x 10-6 cm s-1. Source data are provided as a Source Data file. […]
# Parallel artificial membrane permeability assays. Prediction of the brain penetration was evaluated using a parallel artificial membrane permeability assay (PAMPA).4 Ten commercial drugs, phosphate buffer saline solution at pH 7.4 (PBS). DMSO and dodecane were purchased from Sigma, Across organics, Aldrich and Fluka. The porcine […]
# plate was a 96-well filtrate plate (Multiscreen® IP Sterile Plate PDVF membrane, pore […]
# MAIPS4510) and the acceptor plate was an indented 96-well plate (Multiscreen®, catalog no. MAMCS9610) both from Millipore. Filter PDVF […]
# membrane units (diameter 30 mm, pore size 0.45 µm) from Symta were used to filter the samples. A 96-well plate UV reader (Thermoscientific, Multiskan spectrum) was used for the UV measurements.
# dNCS-1 [3] = target: T1, dNCS-1; assay: STD-NMR experiments with dNCS-1; assay type: binding; conditions: compound 1 mM, 10 μM dNCS-1, 281 K
# Experimental: Fig. 5 ^1H-STD-NMR spectra of 3a–3e in the presence of dNCS-1. STD (blue) and off-resonance (red) NMR spectra acquired for compounds 3a–3e (1 mM) in the presence of 10 μM dNCS-1 (600 MHz, 281 K). Relative STD intensities are coded according to the color scale shown. The 100% STD signal corresponds to the resonance showing the highest intensity in each case and all other STD signals are calculated accordingly
# The experiments were performed using a deuterated Tris (pH 7.9) buffered solution with an aliquot of DMSO-d6. A sample containing 10 μM of dNCS-1 and 1 mM of DCL species (molar ratio 1:100) was prepared. The STD experiments were acquired at 281 K on a Bruker Avance 600 MHz spectrometer equipped with a cryoprobe. […]. The same conditions were used for the acquisition of the STD-NMR spectra of the individual products with dNCS-1.
# [4] = pH 7.9
# Experimental: as §1
# [5] = PAMPA-BBB, pH 7.4, 5% DMSO, 2 h 30 min at 25 °C, mean ± SD
# [6] = pig, PAMPA-BBB, pH 7.4, 5% DMSO, 2 h 30 min at 25 °C, mean ± SD, read-out: Pe, in vitro permeability
Kd (dNCS-1 [1]),Normalized Fluorescence I0-I/I0 (dNCS-1 [1]; ligand 3.2 μM),Normalized Fluorescence I0-I/I0 (dNCS-1 [1]; ligand 6.4 μM),Normalized Fluorescence I0-I/I0 (dNCS-1 [1]; ligand 8 μM),Normalized Fluorescence I0-I/I0 (dNCS-1 [1]; ligand 16 μM),Normalized Fluorescence I0-I/I0 (dNCS-1 [1]; ligand 24 μM),Normalized Fluorescence I0-I/I0 (dNCS-1 [1]; ligand 32 μM),Normalized Fluorescence I0-I/I0 (dNCS-1 [1]; ligand 48 μM),Normalized Fluorescence I0-I/I0 (dNCS-1 [1]; ligand 64 μM),Normalized Fluorescence I0-I/I0 (dNCS-1 [1]; ligand 80 μM),Normalized Fluorescence I0-I/I0 (dNCS-1 [1]; ligand 96 μM),"Pe, in vitro permeability [2, 5]",Prediction (penetration in the CNS) ([2]; Supplementary Table 5),"Papp at 2.5 h [2, 6]",Pe (10-6 cm s-1) Experimental 1 [2],Pe (10-6 cm s-1) Experimental 2 [2],Pe (10-6 cm s-1) Experimental 3 [2],"Papp at 2.5 h, 0.04 mg/mL [2, 6]",recognition by dNCS-1 in STD-NMR (dNCS-1 [3]),solubility observed under the experimental conditions [4],SMILES
32 ± 2 µM,0.131,0.215,0.262,0.405,0.544,0.668,0.810,0.878,0.924,0.955,did not show good permeability values,CNS -,1.7 ± 0.7 ×10⁻⁶ cm/s,1.7 10-6 cm s-1,1.25 10-6 cm s-1,2.25 10-6 cm s-1,–,–,–,O=C(N/N=C/c1ccc([N+](=O)[O-])c(O)c1)c1ccco1 [3a]
43 ± 6 µM,0.064,0.094,0.164,0.334,0.447,0.600,0.701,0.814,0.849,0.900,–,–,–,12.9 10-6 cm s-1,12.33 10-6 cm s-1,13.52 10-6 cm s-1,12.9 ± 0.8 ×10⁻⁶ cm/s,largest STD intensities,soluble,O=C(Cc1c[nH]c2ccccc12)NN=Cc1ccc([N+](=O)[O-])c(O)c1 (mixture of isomers) [3b]
61 ± 9 µM,0.123,0.086,0.187,0.280,0.401,0.424,0.549,0.700,0.766,0.802,did not show good permeability values,–,2.5 ± 0.6 ×10⁻⁶ cm/s,2.5 10-6 cm s-1,2.04 10-6 cm s-1,2.94 10-6 cm s-1,–,–,–,O=C(NN=Cc1ccc([N+](=O)[O-])c(O)c1)C(O)c1ccccc1 (mixture of isomers) [3d]
